Assay results reported in patent publication US11261222B2, “Transdermal peptide with nuclear localization ability and use thereof” (SOOCHOW UNIVERSITY, priority 2017, dated 2022).
Where a SMILES comes first, the peptide text is derived from it. The star is where a group is joined. FITC = O=C1OC2(c3ccc(O)cc3Oc3cc(O)ccc32)c2ccc(NC(=S)*)cc21

Legend:
[1] = tested on: skin of SD rats; experiment: transdermal penetration effect on back skin of SD rats, fluorescence microscopy of skin sections; assay type: in vivo; settings: 50 μL of 500 μmol/L FITC-labeled peptide solution applied on back skin, three hours
Procedure: The experiments were performed using 8-week old SD rats (body weight 250 g). The back of SD rats was shaved, and the FITC-labeled peptide and control peptide prepared in Example 1 were each dissolved in a phosphate buffer (PBS, pH=7.4) to prepare a solution having a concentration of 500 μmol/L. The SD rats were divided into three groups, including: 1) a control group, in which no polypeptide solution was applied on the back; 2) a control group, in which the peptide as shown in SEQ ID NO: 3 was applied on the dorsal epidermis of rats; and 3) a treatment group, in which the peptide as shown in SEQ ID NO: 1 was applied on the back skin of rats. The rats in Groups 2) and 3) were each applied with 50 μL of the polypeptide solution. After three hours, the polypeptide in the applied area was washed off; the SD rats were sacrificed, and the skin applied with the polypeptide was taken, frozen, sectioned, and then observed under a fluorescence microscope.

[2] = isoelectric point of the transdermal peptide; assay type: physicochemical

Row | Molecule | fluorescence in the dermal tissue of the skin [1] | isoelectric point [2]
1 | CC[C@H](C)[C@H](NC(=O)[C@H](CC(=O)O)NC(=O)[C@H](CCCCN)NC(=O)[C@H](CO)NC(=O)[C@H](Cc1c[nH]c2ccccc12)NC(=O)[C@H](C)NC(=O)[C@H](CC(C)C)NC(=O)[C@H](Cc1c[nH]cn1)NC(=O)[C@H](CC(=O)O)NC(=O)[C@H](CCC(=O)O)NC(=O)[C@@H](NC(=O)[C@H](CO)NC(=O)[C@H](CC(=O)O)NC(=O)[C@@H](NC(=O)[C@H](CO)NC(=O)[C@H](CC(C)C)NC(=O)[C@H](C)NC(=O)[C@@H](NC(=S)Nc1ccc2c(c1)C(=O)OC21c2ccc(O)cc2Oc2cc(O)ccc21)[C@@H](C)CC)[C@@H](C)CC)C(C)C)C(=O)N[C@@H](CC(N)=O)C(=O)N[C@@H](C)C(=O)O [irrelevant control polypeptide, reference compound] ({FITC}-IALSIDSVEDHLAWSKDINA-OH) | no green fluorescence in the dermal tissue | 
2 | CC(C)C[C@H](NC(=O)[C@H](Cc1ccc(O)cc1)NC(=O)[C@H](CCCCN)NC(=O)[C@H](CCCCN)NC(=O)CNC(=O)[C@H](CO)NC(=O)[C@@H]1CCCN1C(=O)[C@H](CC(C)C)NC(=O)[C@H](CCC(=O)O)NC(=O)[C@H](CCCCN)NC(=O)[C@@H](NC(=O)[C@H](Cc1ccccc1)NC(=O)[C@@H](NC(=O)CNC(=O)[C@H](CCCCN)NC(=O)[C@@H]1CCCN1C(=O)[C@H](Cc1ccccc1)NC(=O)[C@H](CC(C)C)NC(=O)[C@H](CCCCN)NC(=O)[C@H](CCCCN)NC(=S)Nc1ccc2c(c1)C(=O)OC21c2ccc(O)cc2Oc2cc(O)ccc21)C(C)C)[C@@H](C)O)C(=O)N[C@@H](CCCNC(=N)N)C(=O)O [peptide of the present invention] ({FITC}-KKLFPKGVFTKELPSGKKYLR-OH) | clearly observed in the skin appendages of the dermis | 
3 | transdermal peptide with a nuclear localization ability: transdermal peptide with amino acid sequence as shown in SEQ ID NO: 1, enters eukaryotic cells autonomously (KKLFPKGVFTKELPSGKKYLR; Transdermal peptide) |  | 10.92
